# Measured values published in patent publication US7342137B1, “Cyclohexenone compounds from Antrodia camphorata and application thereof” (Golden Biotechnology Corporation, priority 2007, dated 2008).
# Tests used:
# [1] = system: human hepatic cancer cells, Hep 3B; test: In vitro Lovastatin add-on study (MTT), Hep 3B; assay type: cell-based; conditions: 0.0043 μg/ml Lovastatin 72 hours, 0 μg/ml formula 2
# Description: (§1) The experiment was also carried out according to NCI anti-cancer drug screen in vitro model. The human hepatic cancer cells, Hep 3B and Hep G2 and MDA-MB-231 were separately cultivated in media containing fetal calf serum for 24 hours. The proliferated cells were washed once with PBS, then treated with 1× trypsin-EDTA and centrifuged at 1200 rpm for 5 minutes. The supernatant was discarded and the cell pellet was resuspended in 10 ml of fresh culture medium by gently shaking. The Hep 3B cells were treated with 0.0043 μg/ml of Lovastatin for 72 hours and Hep G2 cells were treated with 0.0017 μg/ml of Taxol for 72 hours before placing in a 96-well plate. 4-hydroxy-2,3-dimethoxy-6-methyl-5(3,7,11-trimethyl-dodeca-2,6,10-trienyl)-cyclohex-2-enone obtained from example 1 were added respectively into each of the 96 wells at the following concentrations: 0 μg/ml (the control group); 30, 10, 3, 1, 0.3, 0.1 and 0.03 μg/ml (the experiment group). The cells were incubated at 37° C. in a 5% CO2 incubator for 48 hours. MTT was added in a concentration of 2.5 mg/ml into each well in dark and reacted for 4 hours, followed by the addition of 100 μl of lysis buffer to stop the reaction. The plates were read on an ELISA reader at wavelength of 570 nm to determine the survival rates.
# [2] = system: human breast-cancer cells, MCF-7; test: In vitro Taxol add-on study (MTT), MCF-7; assay type: cell-based; conditions: 0.0017 μg/ml Taxol 72 hours, 0 μg/ml formula 2
# Description: as §1, with “breast-cancer” for “hepatic cancer”, “MCF-7” for “Hep 3B and Hep G2”, “The” for “The Hep 3B”, “placed” for “treated with 0.0043 μg/ml of Lovastatin for 72 hours and Hep G2 cells were treated with 0.0017 μg/ml of Taxol for 72 hours before placing”, “plate after 0.0017 μg/ml Taxol was added and treated for 72 hours.” for “plate.”, “terminate” for “stop”
# [3] = system: human breast-cancer cells, MDA-MB-231; test: In vitro Taxol add-on study (MTT), MDA-MB-231; assay type: cell-based; conditions: 0.0017 μg/ml Taxol 72 hours, 0 μg/ml formula 2
# Description: as §1, with “breast-cancer” for “hepatic cancer”, “MCF-7” for “Hep 3B and Hep G2”, “The” for “The Hep 3B”, “placed” for “treated with 0.0043 μg/ml of Lovastatin for 72 hours and Hep G2 cells were treated with 0.0017 μg/ml of Taxol for 72 hours before placing”, “plate after 0.0017 μg/ml Taxol was added and treated for 72 hours.” for “plate.”, “terminate” for “stop”
# [4] = system: human hepatic cancer cells, Hep G2; test: In vitro Taxol add-on study (MTT), Hep G2; assay type: cell-based; conditions: 0.0017 μg/ml Taxol 72 hours, 0 μg/ml formula 2
# Description: as §1
# [5] = system: human prostate cancer cells, LNCaP; test: In vitro Taxol add-on study (MTT), prostate cancer cells LNCaP; assay type: cell-based; conditions: LNCaP (0.0017 μg/ml Taxol) as printed in Table 6; 0 μg/ml formula 2
# Description: as §1, with “human prostate” for “human hepatic”, “cells, LNCaP” for “cells, Hep 3B”, “and DU-145” for “and Hep G2 and MDA-MB-231”, “The LNCaP cells were treated with 0.0017 μg/ml of Taxol for 72 hours and DU-145” for “The Hep 3B”, “0.0043” for “0.0043 μg/ml of Lovastatin for 72 hours and Hep G2 cells were treated with 0.0017”
# [6] = system: human prostate cancer cells, DU-145; test: In vitro Taxol add-on study (MTT), prostate cancer cells DU-145; assay type: cell-based; conditions: DU-145 (0.0043 μg/ml Taxol) as printed in Table 6; 0 μg/ml formula 2
# Description: as §1, with “human prostate” for “human hepatic”, “cells, LNCaP” for “cells, Hep 3B”, “and DU-145” for “and Hep G2 and MDA-MB-231”, “The LNCaP cells were treated with 0.0017 μg/ml of Taxol for 72 hours and DU-145” for “The Hep 3B”, “0.0043” for “0.0043 μg/ml of Lovastatin for 72 hours and Hep G2 cells were treated with 0.0017”
# [7] = system: Human low density lipoprotein (LDL); test: In vitro antioxidant activity study (Cu2+-induced LDL oxidation, diene formation); assay type: biochemical; conditions: for Tlag: LDL oxidised with 5 μM CuSO4; for Capacity values: capacity value 1 = 2 μM Trolox; for ΔTlag: difference between Tlag and Tlag0 (H2O)
# Description: Human low density lipoprotein (LDL) oxidated with copper ion (Cu^2+) has been widely employed to assess antioxidant activities of samples to be assayed. Antioxidant activity of a sample is determined by the diene contents of LDL after oxidation and expressed in Trolox equivalents by using a standard curve calculated from the water-soluble vitamin E analogue Trolox standards (the antioxidant capacity value of 1 is expressed in terms of 2 μM of Trolox).
# The following solutions were prepared firstly: double distilled water (the negative control group), 5 mM sodium phosphate buffer (SPB), 1 μM and 2 μM Trolox solution (the positive control group), and 40 μg/ml 4-hydroxy-2,3-dimethoxy-6-methyl-5(3,7,11-trimethyl-dodeca-2,6,10-trienyl)-cyclohex-2-enone isolated from example 1. The concentration of LDL cholesterol (LDL-C) was determined using enzyme reaction method, which was diluted to 0.1-0.25 mg/ml with 5 mM SPB. One hundred μl of the LDL was added into each well of a 96-well quartz plate, followed by addition of the abovementioned Trolox and the isolated compound from example 1. Standardized oxidizing agent CuSO4 was supplemented to induce oxidation at a final concentration of 5 μM in each 250 μl well. The plate was read on an ELISA reader at wavelength of 232 nm at 37 °C for 12 hours. The sampling time was 15 min.
compound,measurement,setting,value
"CC[C@H](C)C(=O)O[C@H]1C[C@@H](C)C=C2C=C[C@H](C)[C@H](CC[C@@H]3C[C@@H](O)CC(=O)O3)[C@H]21 [Lovastatin, reference compound]",Cell survival rate (%),[1],61 ± 3%
"CC(=O)O[C@H]1C(=O)[C@@]2(C)[C@H]([C@H](OC(=O)c3ccccc3)[C@]3(O)C[C@H](OC(=O)[C@H](O)[C@@H](NC(=O)c4ccccc4)c4ccccc4)C(C)=C1C3(C)C)[C@]1(OC(C)=O)CO[C@@H]1C[C@@H]2O [Taxol, reference compound]",Cell survival rate (%),[2],65 ± 1%
same,Cell survival rate (%),[3],76 ± 3%
same,Cell survival rate (%),[4],81 ± 2%
same,Cell survival rate (%),[5],56 ± 3%
same,Cell survival rate (%),[6],70 ± 2%
Cc1c(C)c2c(c(C)c1O)CCC(C)(C(=O)O)O2 (stereo not drawn) [Trolox],Tlag,[7]; 1 μM Trolox,266 min
same,Capacity values,[7]; 1 μM Trolox,0.48
same,ΔTlag,[7]; 1 μM Trolox,81 min
same,Tlag,[7]; 2 μM Trolox,344 min
same,Capacity values,[7]; 2 μM Trolox,1.00
same,ΔTlag,[7]; 2 μM Trolox,159 min
